US20050282869A1, “Use of a compound in the treatment of sleep disorders and the like, in providing refreshedness on waking and a method for the treatment of grogginess therewith” (priority 2001, published 2005)

Legend:
[1] = tested on: patients with temporary sleep disturbance; assay: Clinical trial: Loughborough sleep log questionnaire; assay type: in vivo, human; settings: for Loughborough Sleep Log: Awoke Very Refreshed or Refreshed Responses, %: % of patients
Excerpt: (§1) The efficacy of triprolidine in enabling a patient to feel refreshed or alert upon waking after taking triprolidine prior to sleeptime was investigated using patients with a history of sleep disorders and utilising triprolidine prepared in accordance with example 3.
(§2) The study herein utilised the following determination methods:— • (a) Karolinska scale as defined in: Int. J. Neuroscience 52 29-37 (1990); and validation: Sleep 17 (3) 236-41 (1994) • (b) Loughborough Sleep log as defined in: Sleep 17 (2)146-159 (1994); and Sleep 18 (2) 127-134 (1995) • (c) Actimetry—AW4 actimeters (Cambridge Neurotechnology) were worn continuously throughout the study. A button was pressed at night when the subject desired to go to sleep and again in the morning upon waking. The results of the actimeter study were analysed in the manner defined by Home et al (Sleep, 17(2); 146-159).
(§3) A multiple-dose, placebo-controlled, parallel-group, double-blind, randomised study investigating the effects of 2.5 mg and 5 mg triprolidine in patients with temporary sleep disturbance.
(§4) Male and Female candidates aged 18 years and above were recruited to one of five research centres by means of local advertising. Candidates were screened by means of a telephone questionnaire and selected candidates invited for interview at the research centre. Key inclusion criteria used to select candidates for the study were: • A record of poor sleep at least 2 nights per week • A record of poor sleep for at least 1 week but not more than 3 months • Sleep disturbance not caused by underlying disease • No excess use of alcohol or drugs • Sleep disturbance affected daytime functioning
(§5) The candidates came to the research centre on Thursday or Friday and were fitted with a wrist actimeter (AW4 from Cambridge Technology) to establish a baseline measure for SDI and were provided with diary cards to record subjective assessments for the Loughborough Sleep Log and the Karolinska Sleepiness Scale. They returned to the investigational site on the Monday and were issued with the study compositions (2.5 mg triprolidine, 5 mg triprolidine or placebo). The investigator telephoned a central randomisation centre where the subject was randomised to a particular treatment group using a dynamic balanced randomisation algorithm. The subject was given three doses of their allocated study medication and instructed to take a single dose of two tablets 20 minutes before they intended to go to sleep on three consecutive evenings, commencing that evening. The diary cards for the Loughborough Sleep Log and Karolinska Sleepiness Scale were asked to be completed on waking.
Candidates were required to complete a questionnaire 15 minutes after awaking on the feeling of refreshedness assessed on a 5-point scale, the Loughborough sleep log.
(§6) 198 candidates completed the study, of whom 178 provided evaluable data. (61 placebo, 60 on 2.5 mg triprolidine and 57 on 5 mg triprolidine. The subjects on 2.5 mg dose took one tablet and placebo those on 5 mg dose took 2×2.5 mg tablets. The subjects on placebo took a dose to match the active treatments (2 tablets).
Generally the treatment groups were well balanced in terms of the demographic data. Unless otherwise mentioned all group data was analysed using ANOVA. In two cases, namely, how the patient felt 15 minutes after awakening in the Loughborough Sleep Log and the Karolinska Sleepiness Scale at 20 minutes, the two variables were analysed using ANCOVA by including the weekend and the mean of Friday/Saturday/Sunday night as a covariate. The method was a closed test procedure (Williams' test). Each of the tests were to be conducted at the 5% level. The analysis of the secondary endpoints was similarly conducted using the Student's t-tests on parameter estimates taken from the analysis of variance model presented above. […]

[2] = tested on: patients with temporary sleep disturbance; assay: Clinical trial: Karolinska 9-point sleepiness scale; assay type: in vivo, human; settings: for Karolinska 9-point scale (a) I feel extremely alert, very alert or alert, %: scales 1, 2 or 3
Excerpt: as §1, §2, §3, §4, §5
A daytime sleepiness assessment was also made 20 minutes, 2 hours and 4 hours after awaking on the Karolinska 9-point scale, ie. the sleepiness scale.
as §6
Generally the treatment groups were well balanced in terms of the demographic data. Unless otherwise mentioned all group data was analysed using ANOVA. In two cases, namely, how the patient felt 15 minutes after awakening in the Loughborough Sleep Log and the Karolinska Sleepiness Scale at 20 minutes, the two variables were analysed using ANCOVA by including the weekend and the mean of Friday/Saturday/Sunday night as a covariate. The method was a closed test procedure (Williams' test). Each of the tests were to be conducted at the 5% level. The analysis of the secondary endpoints was similarly conducted using the Student's t-tests on parameter estimates taken from the analysis of variance model presented above.
Karolinska's sleepiness scale is set out below and the results for placebo, 2.5 and 5.0 mg doses of triprolidine are shown in tables 4 and 5. […]

volunteers = settings: single doses 10 mg or 20 mg sustained release at bedtime; cited from earlier work
[3] = tested on: patients with temporary sleep disturbance; assay: Clinical trial: wrist actimetry (SDI, time to sleep onset); assay type: in vivo, human
Excerpt: as §1, §2
SDI % was calculated as follows:— [formula]
This is the measure of: • 1. The length of time it took to fall asleep • 2. Any awakenings throughout the sleep period • Expressed as a % of total time spent in bed. Study Objectives • To evaluate the effects of two doses of triprolidine compared with placebo. Study Design
as §3, §4, §5, §6
The study design used 3 groups. On average, the number of individuals in each of the 3 groups (placebo, 2.5 mg triprolidine and 5 mg triprolidine) was 60±10 patients.
In the trial, patients were tested during a seven day period and the results have been analysed for a mean of three days in the middle of this period. The effects of triprolidine at dose level 2.5 mg and 5.0 mg are compared with placebo in table 1.
Generally the treatment groups were well balanced in terms of the demographic data. Unless otherwise mentioned all group data was analysed using ANOVA. […]

[4] = 2.5 mg, mean of the 3 nights, p<0.05
[5] = both treatments (2.5 mg and 5 mg), every treatment night

Compound: Cc1ccc(/C(=C\CN2CCCC2)c2ccccn2)cc1 [triprolidine]
- no of times woke up (Loughborough sleep log), Mean ([1]; 2.5 mg dose, Mean of 3): 1.22
- time to fall asleep (min) (Loughborough sleep log), Mean ([1]; 2.5 mg dose, Mean of 3): 23.93 min
- no of times woke up (Loughborough sleep log), Mean ([1]; 2.5 mg dose, Mon): 1.18
- time to fall asleep (min) (Loughborough sleep log), Mean ([1]; 2.5 mg dose, Mon): 23.67 min
- Loughborough Sleep Log: Awoke Very Refreshed or Refreshed Responses, % ([1]; 2.5 mg dose, Monday): 23%
- no of times woke up (Loughborough sleep log), Mean ([1]; 2.5 mg dose, Tues): 1.37
- time to fall asleep (min) (Loughborough sleep log), Mean ([1]; 2.5 mg dose, Tues): 24.44 min
- Loughborough Sleep Log: Awoke Very Refreshed or Refreshed Responses, % ([1]; 2.5 mg dose, Tuesday): 23%
- no of times woke up (Loughborough sleep log), Mean ([1]; 2.5 mg dose, Wed): 1.11
- time to fall asleep (min) (Loughborough sleep log), Mean ([1]; 2.5 mg dose, Wed): 20.95 min
- feeling of refreshedness 15 minutes after waking vs placebo (Loughborough sleep log) [1, 4]: more refreshed
- no of times woke up (Loughborough sleep log), Mean ([1]; 5 mg dose, Mean of 3): 1.42
- time to fall asleep (min) (Loughborough sleep log), Mean ([1]; 5 mg dose, Mean of 3): 26.5 min
- no of times woke up (Loughborough sleep log), Mean ([1]; 5 mg dose, Mon): 1.49
- time to fall asleep (min) (Loughborough sleep log), Mean ([1]; 5 mg dose, Mon): 22.02 min
- no of times woke up (Loughborough sleep log), Mean ([1]; 5 mg dose, Tues): 1.42
- time to fall asleep (min) (Loughborough sleep log), Mean ([1]; 5 mg dose, Tues): 32.08 min
- Loughborough Sleep Log: Awoke Very Refreshed or Refreshed Responses, % ([1]; 5 mg dose, Tuesday): 8.2%
- no of times woke up (Loughborough sleep log), Mean ([1]; 5 mg dose, Wed): 1.39
- time to fall asleep (min) (Loughborough sleep log), Mean ([1]; 5 mg dose, Wed): 24.24 min
- Loughborough Sleep Log: Awoke Very Refreshed or Refreshed Responses, % ([1]; 5 mg dose, Wednesday): 14.8%
- individuals with response of sleeping extremely well or very well (morning log of the Loughborough sleep log) ([1]; dose not stated): over 35%
- (b) I feel (i) sleepy, [and need to make] some effort or (ii) very sleepy, a great effort to keep awake, % ([2]; 2.5 mg dose, Wednesday, Karolinska scales 8 and 9, on waking): 6.5%
- Karolinska 9-point scale (a) I feel extremely alert, very alert or alert, % ([2]; 2.5 mg dose, Wednesday, on waking): 21.0%
- percentage of people feeling alert, very alert or extremely alert on waking vs placebo (Karolinska log) ([2]; 2.5 mg, mean of the 3 nights): greater percentage
- percentage of people feeling sleepy or very sleepy on waking vs placebo (Karolinska log) ([2]; 2.5 mg, mean of the 3 nights): lower percentage
- residual hangover effects/morning grogginess ([2]; 2.5 mg, mean of the 3 nights): no evidence of residual hangover effects/morning grogginess
- Karolinska 9-point scale (a) I feel extremely alert, very alert or alert, % ([2]; 5 mg dose, Monday, on waking): 6.3%
- Karolinska 9-point scale (a) I feel extremely alert, very alert or alert, % ([2]; 5 mg dose, Tuesday, on waking): 9.5%
- sleep onset latency compared with placebo (volunteers): did not significantly alter
- total sleep time compared with placebo (volunteers): no effect
- wakefulness during sleep compared with placebo (volunteers): no effect
- SDI (%) (Sleep latency onset and Quality of sleep) (Actimeter), Mean ([3]; 2.5 mg dose 20 min before sleep, Mon): 11.33%
- SDI (%) (Sleep latency onset and Quality of sleep) (Actimeter), Mean ([3]; 2.5 mg dose, Mean of 3): 11.56%
- TTSO (min) (Time to Sleep onset) (Actimeter), Mean ([3]; 2.5 mg dose, Mean of 3): 15.53 min
- TTSO (min) (Time to Sleep onset) (Actimeter), Mean ([3]; 2.5 mg dose, Mon): 16.22 min
- SDI (%) (Sleep latency onset and Quality of sleep) (Actimeter), Mean ([3]; 2.5 mg dose, Tues): 12.15%
- TTSO (min) (Time to Sleep onset) (Actimeter), Mean ([3]; 2.5 mg dose, Tues): 15.62 min
- SDI (%) (Sleep latency onset and Quality of sleep) (Actimeter), Mean ([3]; 2.5 mg dose, Wed): 11.2%
- SDI compared to placebo ([3]; 2.5 mg, mean of the 3 nights, p<0.01): significantly reduced
- sleep latency onset compared to placebo [3, 4]: reduced
- SDI (%) (Sleep latency onset and Quality of sleep) (Actimeter), Mean ([3]; 5 mg dose, Mean of 3): 12.23%
- TTSO (min) (Time to Sleep onset) (Actimeter), Mean ([3]; 5 mg dose, Mean of 3): 16.93 min
- SDI (%) (Sleep latency onset and Quality of sleep) (Actimeter), Mean ([3]; 5 mg dose, Mon): 11.72%
- TTSO (min) (Time to Sleep onset) (Actimeter), Mean ([3]; 5 mg dose, Mon): 16.16 min
- SDI (%) (Sleep latency onset and Quality of sleep) (Actimeter), Mean ([3]; 5 mg dose, Tues): 12.71%
- TTSO (min) (Time to Sleep onset) (Actimeter), Mean ([3]; 5 mg dose, Tues): 17.88 min
- SDI (%) (Sleep latency onset and Quality of sleep) (Actimeter), Mean ([3]; 5 mg dose, Wed): 11.81%
- TTSO (min) (Time to Sleep onset) (Actimeter), Mean ([3]; 5 mg dose, Wed): 16.36 min
- SDI compared with placebo [3, 5]: reduced
- sleep latency onset compared with placebo [3, 5]: reduced
